# PubChem BioAssay (NCI)
#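 These data come from cells grown in 96-well plates and exposed to compound for 48 hours at five concentrations. TGI denotes the concentration required for complete inhibition of growth.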
# How the values were obtained:
# Test in all cases: NCI anticancer screen, dose series, 48 h
# A498 renal = tested on: A498 renal
# ACHN renal = tested on: ACHN renal
# BT-549 breast = tested on: BT-549 breast
# COLO 205 colon = tested on: COLO 205 colon
# EKVX NSCLC = tested on: EKVX NSCLC
# HCT-116 colon = tested on: HCT-116 colon
# HL-60(TB) leukemia = tested on: HL-60(TB) leukemia
# HOP-92 NSCLC = tested on: HOP-92 NSCLC
# MDA-MB-231 breast = tested on: MDA-MB-231 breast
# NCI/ADR-RES ovarian = tested on: NCI/ADR-RES ovarian
# OVCAR-3 ovarian = tested on: OVCAR-3 ovarian
# OVCAR-8 ovarian = tested on: OVCAR-8 ovarian
# PC-3 prostate = tested on: PC-3 prostate
# SF-268 CNS = tested on: SF-268 CNS
# SNB-75 CNS = tested on: SNB-75 CNS
# SR leukemia = tested on: SR leukemia
# SW-620 colon = tested on: SW-620 colon
# T-47D breast = tested on: T-47D breast
# UACC-257 melanoma = tested on: UACC-257 melanoma
# UO-31 renal = tested on: UO-31 renal
Structure (SMILES),TGI (A498 renal),TGI (ACHN renal),TGI (BT-549 breast),TGI (COLO 205 colon),TGI (EKVX NSCLC),TGI (HCT-116 colon),TGI (HL-60(TB) leukemia),TGI (HOP-92 NSCLC),TGI (MDA-MB-231 breast),TGI (NCI/ADR-RES ovarian),TGI (OVCAR-3 ovarian),TGI (OVCAR-8 ovarian),TGI (PC-3 prostate),TGI (SF-268 CNS),TGI (SNB-75 CNS),TGI (SR leukemia),TGI (SW-620 colon),TGI (T-47D breast),TGI (UACC-257 melanoma),TGI (UO-31 renal)
O=c1[nH]c2nc[nH]c2c(=O)n1C1CCCCC1,> 100 µM,> 100 µM,> 100 µM,> 100 µM,> 100 µM,> 100 µM,> 100 µM,> 100 µM,> 100 µM,> 100 µM,> 100 µM,> 100 µM,> 100 µM,> 100 µM,> 100 µM,> 100 µM,> 100 µM,> 100 µM,> 100 µM,> 100 µM
FC(F)(F)c1cccnc1Sc1nc2ccccc2s1,> 100 µM,> 100 µM,> 100 µM,> 100 µM,> 100 µM,> 100 µM,–,> 100 µM,> 100 µM,> 100 µM,> 100 µM,> 100 µM,> 100 µM,> 100 µM,> 100 µM,> 100 µM,> 100 µM,> 100 µM,> 100 µM,> 100 µM
COc1ccc(NC(=O)C(=O)Cc2nc3ccc(C(=O)c4ccccc4)cc3[nH]c2=O)c([N+](=O)[O-])c1,54.8 µM,> 100 µM,> 100 µM,40 µM,> 100 µM,> 100 µM,–,74.4 µM,> 100 µM,33.2 µM,> 100 µM,49 µM,> 100 µM,> 100 µM,90.2 µM,51.1 µM,79.8 µM,68.9 µM,> 100 µM,67.6 µM
C=C[C@]1(O[Si](C)(C)C)C[C@@]2(C(=O)OCC)C(O)C(=O)N3CCc4cc(OC)c(OC)cc4[C@]312 (some centres not stated),> 100 µM,> 100 µM,> 100 µM,> 100 µM,> 100 µM,> 100 µM,–,> 100 µM,> 100 µM,> 100 µM,> 100 µM,> 100 µM,> 100 µM,> 100 µM,> 100 µM,> 100 µM,> 100 µM,> 100 µM,> 100 µM,> 100 µM
CCCC(=O)OCOC(=O)N(C)N=Nc1ccc(C(=O)OCC)cc1,> 100 µM,56.7 µM,76.9 µM,51.5 µM,> 100 µM,46.6 µM,–,63.7 µM,> 100 µM,> 100 µM,> 100 µM,84.7 µM,97.1 µM,> 100 µM,> 100 µM,> 100 µM,66.3 µM,> 100 µM,> 100 µM,> 100 µM
c1ccc(C2=C(c3ccccc3)Sc3nnc(CCCCCCCCc4nnc5n4NC(c4ccccc4)=C(c4ccccc4)S5)n3N2)cc1,> 100 µM,> 100 µM,> 100 µM,> 100 µM,> 100 µM,> 100 µM,37.2 µM,> 100 µM,> 100 µM,> 100 µM,> 100 µM,> 100 µM,> 100 µM,> 100 µM,> 100 µM,> 100 µM,> 100 µM,79.2 µM,> 100 µM,> 100 µM
c1ccc(COC2C3COC(O3)C(OCc3ccccc3)C2OCc2ccccc2)cc1 (configuration not stated),> 100 µM,> 100 µM,> 100 µM,> 100 µM,> 100 µM,> 100 µM,30.9 µM,> 100 µM,> 100 µM,> 100 µM,> 100 µM,> 100 µM,> 100 µM,> 100 µM,> 100 µM,25.4 µM,> 100 µM,> 100 µM,> 100 µM,> 100 µM
CC(C)CCC[C@@H](C)[C@H]1CC[C@H]2C3=C[C@H](OS(=O)(=O)O)[C@@]4(O)C[C@@H](O)CC[C@]4(C)[C@@]3(O)CC[C@]12C,> 100 µM,> 100 µM,> 100 µM,> 100 µM,> 100 µM,> 100 µM,–,> 100 µM,> 100 µM,> 100 µM,> 100 µM,> 100 µM,> 100 µM,> 100 µM,–,> 100 µM,> 100 µM,> 100 µM,> 100 µM,> 100 µM
O=C(O)Cc1cccc2c(=O)c3cccc([N+](=O)[O-])c3[nH]c12,> 100 µM,> 100 µM,> 100 µM,39.4 µM,–,> 100 µM,> 100 µM,> 100 µM,> 100 µM,> 100 µM,> 100 µM,> 100 µM,> 100 µM,–,> 100 µM,> 100 µM,> 100 µM,> 100 µM,> 100 µM,> 100 µM
